Measurements reported in patent US7256279B2, “Protein having ribonucleotide reductase activity and DNA thereof” (Takeda Pharmaceutical Company Limited, priority 1999, dated 2007).

Assays:
Format in all cases: cell-based
MCF7 cells [1] = assay: Short-term cell survival (cell numbers counted every day for 6 days) after oligonucleotide introduction and DNA damage; settings: in both the short- and long-term, after DNA damage (Table 1 and FIG. 6)
Procedure: (§1) Short-term and long-term cell survival rates were also measured when TP53R2H expression was suppressed with an antisense oligonucleotide and DNA was damaged.
(§2) 2×10^6 MCF7 cells) were propagated on 10 cm Petri dishes, and after 24 hours a p53R2 antisense oligonucleotide (AS3), a sense oligonucleotide (SE3) and a p53 antisense oligonucleotide (p53AS) were introduced using a lipofectin reagent. 4 hours later the cellular DNA was damaged (3 or 14 Gy γ-ray irradiation, adiamycin 0.2 μg/ml, UV 10 J/m^2).
(§3) In order to study short-term cell survival, the cells were stripped immediately after DNA damage and re-propagated on 6-hole plates to a density of 3×10^5, and cell numbers were counted every day for 6 days. To study long-term cell survival, the cells were re-propagated after DNA damage on 10 cm plates to a density of 1×10^4 or 1×10^3, and the number of colonies 1 mm or more in diameter was counted after three weeks and expressed as a percentage.

MCF7 cells [2] = assay: Long-term cell survival (colony count after three weeks) after oligonucleotide introduction and DNA damage; settings: colonies counted after three weeks
Procedure: as §1, §2, §3

MCF7 cells [3] = assay: DNA repair activity through ribonucleotide reductase activity ([3H]-CDP converted to [3H]-dCTP in damaged DNA) after oligonucleotide introduction; settings: 14 Gy γ-ray irradiation 4 hours after lipofectin introduction, cells collected after 0, 24 and 48 hours (FIG. 5)
Procedure: DNA repair activity through ribonucleotide reductase activity was measured by converting [^3H]-CDP to [^3H]-dCTP through ribonucleotide reductase in cells, in which the DNA had been damaged, and measuring the radioactivity of [^3H]-dCTP in the damaged DNA.
1×10^6 MCF7 cells were propagated on 10 cm petri dishes, cellular DNA was damaged (14 Gy γ-ray irradiation) 24 hours later, and after 0, 6, 24 and 48 hours the cells were harvested. After washing the cells with Solution A (150 mM sucrose, 80 mM KCl, 35 mM Hepes (pH 7.4), 5 mM potassium phosphate (pH 7.4), 5 mM MgCl2, 0.5 mM CaCl2), these cells were treated for 1 minute at 4° C. with Solution A containing 0.25 mg/ml lysolecithin. […] 75 μl of 0.2N NaOH was added to the DNA obtained, which was then incubated for 30 minutes at 37° C. and mixed with 5 ml of AQUASOL-2 (Packard), and radioactivity was measured with an Aloka LSC-5100 liquid scintillation counter. […]
2×10^6 MCF7 cells were propagated on 10 cm petri dishes, and after 24 hours a TP53R2H antisense oligonucleotide (AS3) a sense oligonucleotide (SE3) and a p53 antisense oligonucleotide (p53AS) were introduced according to attached protocol using a lipofectin reagent (GIBCO BRL). […] DNA repair activity was then measured in the same way as in Example 4 above.

Substance | sensitivity to DNA damage / cell death (MCF7 cells [1]) | long-term cell survival (number of colonies 1 mm or more in diameter, expressed as a percentage) (MCF7 cells [2]; Adriamycin (0.2 μg/ml)) [%] | long-term cell survival (number of colonies 1 mm or more in diameter, expressed as a percentage) (MCF7 cells [2]; UV (10 J/m2)) [%] | long-term cell survival (number of colonies 1 mm or more in diameter, expressed as a percentage) (MCF7 cells [2]; γ-radiation (3Gy)) [%] | DNA repair activity (MCF7 cells [3])
AsCsAsTsTsTsAsCsCsTsCsAsTsCsCsT (ACATTTACCTCATCCT; all phosphorothioate, sugars by position and methylation of C not given here) [AS3] | sensitivity to DNA damage increases and cell death is more likely | 16 | 22 | 59 | DNA repair activity declined
AsGsGsAsTsGsAsGsGsTsAsAsAsTsGsT (AGGATGAGGTAAATGT; all phosphorothioate, sugars by position not given here) [SE3] | – | 100 | 100 | 100 | –
CsCsCsTsGsCsTsCsCsCsCsCsCsTsGsGsCsTsCsC (CCCTGCTCCCCCCTGGCTCC; all phosphorothioate, sugars by position and methylation of C not given here) [p53AS] | – | 10 | 11 | 15 | DNA repair activity also declined
